# Source: patent US20240382446A1, “METHOD FOR IMPROVING FEED INTAKE” (OREXA B.V., priority 2021, published 2024)
# Like-named read-outs stand apart in the source and are kept apart here.
# Assays:
# [1] = Weaning of mice with feed comprising various local anesthetics (body weight); format: in vivo
# Description: Litters of mice are weaned on day 18 after birth. The siblings are divided over 2 groups (placebo and active) with group sizes of 7-10 siblings.
# The pups are offered daily ad libitum food in which a local anesthetic is mixed. Body weight is measured daily.
# In TABLES I-IV the body weight is depicted as percentage increase on day 14 in comparison to baseline, as a result of dosing lidocaine (comparative), prilocaine (comparative), bupivacaine (comparative) and benzocaine (according to the invention) to the mice. The baseline is the weight of the mouse at the beginning of the experiment. Placebo and experimental scores are statistically compared by means of student-t tests (* p<0,05; ** p<0,01; *** p<0,001). Doses are indicated on the x-axis and are mg per day for the group of siblings.
# [2] = Weaning of piglets with feed comprising various amounts of benzocaine; format: in vivo
# Description: Six groups of 21 piglets were treated.
# They were fed with controlled amounts of feed (see table V).
# Before administration, the food pellets were drenched in water for 30 min and benzocaine (0 g (3×), 5 g, 12,75 g or 17 g, corresponding to a dose of 0, 30, 75 and 100 mg per day per pig, respectively) was added and mixed. The group of piglets receiving feed with 0% benzocaine is referred to as the placebo group.
# Amounts of feed consumed were recorded. Piglets were weighed on day 1 (baseline), 4, and 8.
# [3] = cited from earlier work
# [4] = mice weaned day 18, anesthetic mixed in ad libitum food, day 14 vs baseline
# [5] = benzocaine treated pigs vs placebo group
smiles,measurement,setting,value
"CCN(CC)CC(=O)Nc1c(C)cccc1C [Lidocaine, lidocaine]",growth of the mice (body weight increase) in comparison to placebo,[1]; [4],either inactive (low dose) or inhibit the growth of the mice
CCOC(=O)c1ccc(N)cc1 [benzocaine],fouling and diarrhea,[2]; [5],less fouling and less diarrhea
same,general condition of the pigs,[2]; [5],better than that of the placebo group
same,feed intake relative to placebo,"[2]; piglets, after day 4, 30 mg and 75 mg benzocaine per day",increase feed intake
same,growth of lightest vs heaviest 50% of the animals,"[2]; piglets, day 7, group analysis vs placebo",increase of growth in the benzocaine-fed group primarily takes place with the light weight animals
same,feed intake relative to placebo,"[2]; piglets, first 3 days",initial reduction of the feed intake
same,optimal dose,"[2]; piglets, per pig",75 mg per day
same,feed conversion (feed needed per weight gain),"[2]; piglets, with increasing benzocaine dosing, placebo about 12,8 kg feed per 1 kg","2,6 kg of feed per 1 kg of meat"
same,growth of the mice (body weight increase) in comparison to placebo,"[1]; 200 mg per day for the group of siblings, day 14",inhibits the growth
same,growth of the mice (body weight increase) in comparison to placebo,"[1]; low doses 25, 50 and 100 mg per day for the group of siblings, day 14",increases the growth
same,solubility,[3]; dilute acids,more soluble
same,solubility,"[3]; ethanol, chloroform, and ethyl ether",very soluble
same,solubility,[3]; water,sparingly soluble
CCCCN1CCCCC1C(=O)Nc1c(C)cccc1C (stereo not drawn) [bupivacaine],growth of the mice (body weight increase) in comparison to placebo,[1]; [4],either inactive (low dose) or inhibit the growth of the mice
CCCNC(C)C(=O)Nc1ccccc1C (stereo not drawn) [prilocaine],growth of the mice (body weight increase) in comparison to placebo,[1]; [4],either inactive (low dose) or inhibit the growth of the mice
